This is an account of results in patent publication EP1647279A2, “Inhibition of apoptosis using interleukin-1beta-converting enzyme (ICE)/CED-3 family inhibitors” (priority 1996, dated 1998).

Residues, ends and D or L forms follow the SMILES beside them. *: point of attachment. Cbz = O=C(OCc1ccccc1)*; CH2F = FC*

Type in all cases: cell-based
Data set [1] has as its system granulocytes. As to the kind of experiment: Granulocyte survival in culture: analysis of hypodiploid nuclei by flow cytometry (propidium iodide). The settings on record: Figure 6; for IC50: isolated granulocytes cultured at 37°C, nuclear hypodiploidy, propidium iodide stain via flow cytometry, read-out: IC50 (effects on granulocyte survival). How it is done:
Whole blood anticoagulated with Acid Citrate Dextrose (ACD) with a ratio of 1:5 ACD to blood was collected (~100 ml).
Using polypropylene plastic ware, neutrophils are isolated as follows: 30 ml of the whole blood is added to 50 ml polypropylene centrifuge tubes containing 15 ml of 6% Dextran (in Saline). The blood is allowed to sediment for approximately 1 hour at room temperature.
The turbid straw colored layer harvested from the top of the cylinders into 50 ml conical polypropylene tubes. The blood cells were pelleted by centrifugation at 240 xg (Sorvall centrifuge at 1200 rpm) for 12 min. at 4°C with the brake on low.
The supernatant was aspirated and the pooled pellet resuspended in 40-50 ml cold PBS (w/o Ca, Mg), and centrifuged at 240 xg (Sorvall centrifuge at 1200 rpm) for 6 min. at 4°C with the brake on high.
The supernatant was aspirated and the pellet resuspended in 12 ml of cold cell culture grade water. The suspension was titriated gently with a pipet for 30 seconds then add 4 ml of cold 0.6 M KCl. (Brought up to 50 ml with cold PBS (w/o Ca, Mg)) and then centrifuged at 300 xg (Sorvall centrifuge at 1400 rpm) for 6 min. at 4°C with the brake on high.
The above was repeated one time.
The supernatant was aspirated and the cells resuspended in 2.5 ml cold PBS (w/o Ca, Mg). The cell suspension was layered over 3 ml Ficoll-Hypaque in a 15 ml polypropylene conical tube and centrifuged at 400 xg (Sorvall centrifuge at 1900 rpm) for 30 min. at 4°C with the brake on low.
The suspension aspirated was down to the neutrophil pellet. […]
The supernatant was aspirated and the neutrophil pellet resuspended in 4.0 ml cold PBS (w/o Ca, Mg) on ice. 10 µl of the neutrophil cell suspension was diluted with 990 µl of Trypan blue (1:100) and cells counted using a hemacytometer. The cell number and viability were determined. […]
• (50 µg/ml propidium iodide (Sigma catalog#P4170); 0.1% Triton X-100; and 0.1% sodium citrate). • Neutrophils were pelleted at 4°C and the supernate aspirated. • Neutrophils were resuspended in hypotonic fluorochrome solution at a density of 5x10^6 cells/ml. Propidium iodide fluorescence of individual nuclei was evaluated in FL2 and measured on a logarithmic scale while gating on physical parameters in forward and side scatter to exlude cell debris.
At least 10,000 events per sample were collected and the results were evaluated relative to a non-apoptotic neutrophil population. […]
The present invention provides methods to enhance the ex vivo survival of neutrophils/granulocytes. […] The presence of hypodiploid DNA is a measure of apoptosis, and is assessed using a propidium iodide stain via flow cytometry. […]
For orientation: A flow cytometer gives signals particle by particle.

Data set [2] has as its system granulocytes. Put plainly: Respiratory burst in isolated neutrophils measured by chemiluminescence (opsonized zymosan, lucigenin). The settings on record: Figure 7. How it is done:
Whole blood anticoagulated with Acid Citrate Dextrose (ACD) with a ratio of 1:5 ACD to blood was collected (150 ml). Neutrophils were isolated as described above.
Opsonized zymosan was prepared by suspending 125 mg zymosan particles in 25 ml pooled human serum (5 mg/ml) and incubating them for 20 minutes at 37°C. Centrifuge the suspension and resuspend the particles in 7 ml of PBS (18 mg/ml) and stored on ice until use (vortex prior to pipetting).
50 ml of a 250 µM solution of Lucigenin (MW 510.5) was prepared by dissolving 6.4 mg of the solid in 50 ml of PBS-G (+ Ca, Mg). 10 µl of PBS-G (+ Ca, Mg) to the wells in a white 96 well plate.
50 µl of the 250 µM Lucigenin solution was added to the wells in a white 96 well plate.
Cell preparations were obatined from cell culture (concentration at time zero= 5.0 x 10^6 cells/ml) with PBS-G (+ Ca, Mg).
20 µl of the neutrophil suspension was suspended to the appropriate wells and the plate was incubated the plate at 37° C for three minutes. 10 µl of the opsonized zymosan was added to the wells.
The plate was read on the luminometer (Labsystems Luminoskan, Needham Heights, MA) for 14 min. at 37° C in the kinetic mode and record results using the software DeltaSoft.
The ability to undergo the respiratory burst is another measure of granulocyte viability. The respiratory burst is a physiological response of granulocytes to foreign stimuli such as bacteria. In this example, the method for inducing the respiratory burst utilized opsonized bacterial zymosan. The respiratory burst was measured via chemiluminescence.

Data set [3] concerns granulocytes in whole blood. As to the kind of experiment: Whole blood assay: survival of granulocytes by hypodiploid analysis via flow cytometry. How it is done: The following reagents were used: • anti-CD32-FITC monoclonal antibody obtained from Pharmingen. • Lysing Solution (10X Stock: 89.9 g NH4Cl; • 10.0 g KHCO; • 0.37 g tetrasodium EDTA; • dissolve in 1 liter dH2O. Adjust to pH 7.3. Store at 4°C in a tightly closed bottle. • Dilute 1:10 with dH2O prior to use.) • (DPBS without calcium or magnesium obtained from Irivine Scientific. • 2% fetal bovine serum in DPBS stored at 4°C. • 50 µg/ml propidium iodide in DPBS sterile filtered and stored at 4°C.)
The following protocol was followed: • 200 µl blood sample/2.8 ml 1X lysis solution in a 15 ml polypropylene conical tube. • Cap and invert to mix. Leave at room temperature for 3-5 minutes. • Centrifuge in a table-top Sorvall at 1200 rpm for 5 minutes at 4°C. • Aspirate supernate. Resuspend pellet in 200 µl/sample 2% FBS/DPBS. Add 20 µl/sample anti-CD32-FITC. Incubate 30 minutes on ice in the dark. • Add 5 ml/sample DPBS. Centrifuge at 1000 rpm for 5 minutes at 4°C. • Aspirate supemate. Resuspend pellet in 1 ml/sample 2% FBS/DPBS. • Add 3 ml/sample ice-cold 95% EtOH dropwise while vortexing gently. • Incubate samples on ice in the dark for 30 minutes. • Centrifuge at 1000 rpm for 5 minutes at 4°C. • Resuspend each sample in 50 µl 5 mg/ml RN'ase. Transfer sample to 900 µl/sample • 50 µg/ml Propidium Iodide in 12x75 mm Falcon polystyrene tubes. • Incubate on ice for 30 minutes. • Analyze samples by flow cytometry (argon laser) for forward and side scatter and fluorescence.
Survival of granulocytes in whole blood was measured by hypodiploid analysis in a similar fashion to isolated granulocytes via flow cytometry. ICE/ced-3 inhibitors of the present invention maintained survival of granulocytes in whole blood for 96 hours at room temperature as indicated in the table below: Percentage of diploid granulocytes in whole blood

Setting [4] is: after granulocyte culture for 72 hours.
Setting [5] is: granulocyte culture for 48 hours.

`O=C(O)CC(NC(=O)[C@@H]1Cc2cccc3c2N1C(=O)[C@@H](NC(=O)OCc1ccccc1)CC3)C(=O)CF` (relative stereo) [Example 106]: in the data set with granulocytes [1], the IC50 (as a rule, the midpoint of a concentration-inhibition curve) is under 5 µM.

Regarding `Cc1c(C(=O)N[C@H](C(=O)NC(CC(=O)O)C(=O)CF)C(C)C)n(C)c2ccccc12` (stereo partly shown) [Example 43, N-[(1,3-Dimethylindole-2-Carbonyl)Valinyl]-3-Amino-4-Oxo-5-Fluoropentanoic Acid], the respiratory burst entry in the data set on granulocytes [2] (setting [4]) was “partially maintained”; in the data set with granulocytes [2] (setting [5]), “substantially maintained”. In addition, the IC50 in the data set on granulocytes [1] was under 5 µM. Besides, the “Percentage of diploid granulocytes in whole blood” value in data set [3] (96 hours at room temperature) stood at 91%; in data set [3] (time zero, 0 min), 96%.

Turning to `Cc1c(C(=O)N[C@H](C(=O)NC(CC(=O)O)C(=O)COC(=O)c2c(Cl)cccc2Cl)C(C)C)n(C)c2ccccc12` (stereo partly shown) [Example 70, N-[N-(1,3-Dimethyl-indole-2-carbonyl)-Valinyl]-3-amino-5-(2,6-dichlorobenzoyl)oxy-4-oxo-pentanoic acid], the respiratory burst entry in the data set with granulocytes [2] (setting [4]) is listed as “partially maintained”; with granulocytes [2] (setting [5]), “substantially maintained”. Moreover, the IC50 in the data set with granulocytes [1] is under 5 µM. The “Percentage of diploid granulocytes in whole blood” value in data set [3] (96 hours at room temperature) turned out to be 89%; in data set [3] (time zero, 0 min) it was 96%.

Consider `COC(=O)C[C@H](NC(=O)[C@H](C)NC(=O)[C@@H](NC(=O)OCc1ccccc1)C(C)C)C(=O)CF` [zVADfmk, reference compound] (Cbz-Val-Ala-Asp(OMe)-CH2F), for which the respiratory burst entry with granulocytes [2] (no time stated) is recorded as “did not maintain the respiratory burst”. For the same compound, the “effect on improving granulocyte survival” value in the data set with granulocytes [1] (isolated granulocytes in culture, at 48 hours) is “weak effect”.
